Experimental data as given in patent publication US5807535A, “Metal complexes of hydroxyaryl containing aminocarboxylic acid chelating agents” (Australian Nuclear Science & Technology Organisation, priority 1992, dated 1998).

Experiments:
[1] = Biodistribution of 67Ga complexes in mice; assay type: in vivo, balb/c mice
Experimental: To ligand (50 μL, 10 mg/mL, 0.2 M NaOAc, […]) was added ^67 Ga citrate (18.5 MBq) and the resultant mixture diluted to 1 mL (0.2 M NaOAc, pH 7). The pH was adjusted to 12 with 1 M NaOH (20 μL) and heated at 40° C. for 40 min. The final volume was adjusted (to 5 mL) with saline and sterilised by filtering through a 0.22 μm filter.
Each animal was injected via tail vein with ^67 Ga complex (100 μL, ~3.7×10^5 Bq). Animals were sacrificed at various time intervals (5 animals per time point/6 time points). Data are illustrated in FIG. 26-30 and in Tables 13-17.
Each ^67 Ga-ligand complex has been evaluated in balb/c mice. […] (see FIG. 26-30).

[2] = Biodistribution of 99mTc complexes in mice; assay type: in vivo, Balb/c mice
Excerpt: A series of derivatives incorporating carboxyl and phenolate donor groups (1-6) were synthesised by literature method and their radiolabelling characteristic and biological behaviour evaluated. Initial work involved an investigation of radiochemical properties of the ^99m Tc complexes of the ligands and their biodistribution in rats and mice (see Tables 1-6 and 8-12).
A typical method of radiolabelling of the chelator was achieved by dissolving the chelator in a basic solution of saline. The pH was then adjusted to approx. 6 with HCl. Excess stannous chloride was added to the resultant solution followed by one equivalent volume of sodium ^99m TcO4 (10-50 mCi/ml). Final concentration of the chelator was approx. 1 mg/ml. The efficacy of labelling was determined by ITLC-SG. For each product only one main radiochemical species was observed. Each complex was diluted to 15 μCi/100 μl with saline. […] (See FIGS. 1A and 1B).

O=C(O)CN(CCN(CC(=O)O)CC(=O)Nc1ccc(Cl)cc1O)CC(=O)Nc1ccc(Cl)cc1O [Compound 2]
biodistribution bone ([1]; 1 min): 6.16 % ID
biodistribution kidney ([1]; 1 min): 9.54 % ID
biodistribution liver ([1]; 1 min): 24.9 % ID
biodistribution lungs ([1]; 1 min): 1.79 % ID
biodistribution muscle ([1]; 1 min): 20.55 % ID
biodistribution skin ([1]; 1 min): 11.55 % ID
biodistribution spleen ([1]; 1 min): 0.29 % ID
biodistribution bone ([1]; 3 min): 2.82 % ID
biodistribution kidney ([1]; 3 min): 4.62 % ID
biodistribution liver ([1]; 3 min): 35.52 % ID
biodistribution lungs ([1]; 3 min): 0.56 % ID
biodistribution muscle ([1]; 3 min): 8.63 % ID
biodistribution skin ([1]; 3 min): 9.27 % ID
biodistribution spleen ([1]; 3 min): 0.1 % ID
biodistribution bone ([1]; 5 min): 2.13 % ID
biodistribution kidney ([1]; 5 min): 3.52 % ID
biodistribution liver ([1]; 5 min): 33.09 % ID
biodistribution lungs ([1]; 5 min): 0.41 % ID
biodistribution muscle ([1]; 5 min): 5.50 % ID
biodistribution skin ([1]; 5 min): 8.04 % ID
biodistribution spleen ([1]; 5 min): 0.07 % ID
biodistribution bone ([1]; 10 min): 0.74 % ID
biodistribution kidney ([1]; 10 min): 1.00 % ID
biodistribution liver ([1]; 10 min): 23.34 % ID
biodistribution lungs ([1]; 10 min): 0.12 % ID
biodistribution muscle ([1]; 10 min): 2.00 % ID
biodistribution skin ([1]; 10 min): 3.80 % ID
biodistribution spleen ([1]; 10 min): 0.02 % ID
biodistribution bone ([1]; 30 min): 0.50 % ID
biodistribution kidney ([1]; 30 min): 0.21 % ID
biodistribution liver ([1]; 30 min): 3.7 % ID
biodistribution muscle ([1]; 30 min): 2.00 % ID
biodistribution skin ([1]; 30 min): 0.88 % ID
biodistribution spleen ([1]; 30 min): 0.02 % ID
biodistribution bone ([1]; 120 min): 0.38 % ID
biodistribution kidney ([1]; 120 min): 0.01 % ID
biodistribution liver ([1]; 120 min): 0.92 % ID
biodistribution muscle ([1]; 120 min): 0.31 % ID
biodistribution skin ([1]; 120 min): 0.17 % ID
biodistribution spleen ([1]; 120 min): 0 % ID
biodistribution GIT ([2]; 1 min): 3.74 % Injected dose
biodistribution blood ([2]; 1 min): 23.14 % Injected dose
biodistribution bone ([2]; 1 min): 7.88 % Injected dose
biodistribution heart ([2]; 1 min): 0.49 % Injected dose
biodistribution kidney ([2]; 1 min): 8.04 % Injected dose
biodistribution liver ([2]; 1 min): 14.68 % Injected dose
biodistribution lungs ([2]; 1 min): 1.36 % Injected dose
biodistribution muscle ([2]; 1 min): 19.67 % Injected dose
biodistribution skin ([2]; 1 min): 13.37 % Injected dose
biodistribution spleen ([2]; 1 min): 0.19 % Injected dose
biodistribution stomach ([2]; 1 min): 0.67 % Injected dose
biodistribution tail ([2]; 1 min): 4.05 % Injected dose
biodistribution urine ([2]; 1 min): 0.09 % Injected dose
biodistribution GIT ([2]; 3 min): 4.86 % Injected dose
biodistribution blood ([2]; 3 min): 14.96 % Injected dose
biodistribution bone ([2]; 3 min): 6.29 % Injected dose
biodistribution heart ([2]; 3 min): 0.34 % Injected dose
biodistribution kidney ([2]; 3 min): 10.44 % Injected dose
biodistribution liver ([2]; 3 min): 14.52 % Injected dose
biodistribution lungs ([2]; 3 min): 1.19 % Injected dose
biodistribution muscle ([2]; 3 min): 14.89 % Injected dose
biodistribution skin ([2]; 3 min): 13.1 % Injected dose
biodistribution spleen ([2]; 3 min): 0.16 % Injected dose
biodistribution stomach ([2]; 3 min): 0.998 % Injected dose
biodistribution tail ([2]; 3 min): 6.89 % Injected dose
biodistribution urine ([2]; 3 min): 2.78 % Injected dose
biodistribution GIT ([2]; 5 min): 3.38 % Injected dose
biodistribution blood ([2]; 5 min): 7.4 % Injected dose
biodistribution bone ([2]; 5 min): 2.99 % Injected dose
biodistribution heart ([2]; 5 min): 0.22 % Injected dose
biodistribution kidney ([2]; 5 min): 5.45 % Injected dose
biodistribution liver ([2]; 5 min): 7.75 % Injected dose
biodistribution lungs ([2]; 5 min): 0.72 % Injected dose
biodistribution muscle ([2]; 5 min): 6.73 % Injected dose
biodistribution skin ([2]; 5 min): 7.96 % Injected dose
biodistribution spleen ([2]; 5 min): 0.07 % Injected dose
biodistribution stomach ([2]; 5 min): 0.6 % Injected dose
biodistribution tail ([2]; 5 min): 30.12 % Injected dose
biodistribution urine ([2]; 5 min): 1.06 % Injected dose
biodistribution GIT ([2]; 10 min): 8.11 % Injected dose
biodistribution blood ([2]; 10 min): 7.15 % Injected dose
biodistribution bone ([2]; 10 min): 2.76 % Injected dose
biodistribution heart ([2]; 10 min): 0.15 % Injected dose
biodistribution kidney ([2]; 10 min): 5.14 % Injected dose
biodistribution liver ([2]; 10 min): 7.95 % Injected dose
biodistribution lungs ([2]; 10 min): 0.53 % Injected dose
biodistribution muscle ([2]; 10 min): 8.73 % Injected dose
biodistribution skin ([2]; 10 min): 11.02 % Injected dose
biodistribution spleen ([2]; 10 min): 0.06 % Injected dose
biodistribution stomach ([2]; 10 min): 1.3 % Injected dose
biodistribution tail ([2]; 10 min): 18.31 % Injected dose
biodistribution urine ([2]; 10 min): 2.67 % Injected dose
biodistribution GIT ([2]; 30 min): 16.24 % Injected dose
biodistribution blood ([2]; 30 min): 3.58 % Injected dose
biodistribution bone ([2]; 30 min): 2.27 % Injected dose
biodistribution heart ([2]; 30 min): 0.09 % Injected dose
biodistribution kidney ([2]; 30 min): 4 % Injected dose
biodistribution liver ([2]; 30 min): 5.71 % Injected dose
biodistribution lungs ([2]; 30 min): 0.43 % Injected dose
biodistribution muscle ([2]; 30 min): 5.48 % Injected dose
biodistribution skin ([2]; 30 min): 5.58 % Injected dose
biodistribution spleen ([2]; 30 min): 0.05 % Injected dose
biodistribution stomach ([2]; 30 min): 2.06 % Injected dose
biodistribution tail ([2]; 30 min): 7.67 % Injected dose
biodistribution urine ([2]; 30 min): 3.84 % Injected dose

Nc1ccc(O)c(NC(=O)CN(CCN(CC(=O)O)CC(=O)Nc2cc(N)ccc2O)CC(=O)O)c1 [Compound 5]
biodistribution urine ([1]; 1 min): 6.30 % ID
biodistribution urine ([1]; 3 min): 8.94 % ID
biodistribution urine ([1]; 5 min): 15.34 % ID
biodistribution urine ([1]; 10 min): 14.23 % ID
biodistribution urine ([1]; 30 min): 7.76 % ID
biodistribution urine ([1]; 120 min): 3.55 % ID
biodistribution bone ([2]; 1 min): 6.02 % Injected dose
biodistribution kidney ([2]; 1 min): 9.08 % Injected dose
biodistribution liver ([2]; 1 min): 5.72 % Injected dose
biodistribution muscle ([2]; 1 min): 23.78 % Injected dose
biodistribution skin ([2]; 1 min): 18.09 % Injected dose
biodistribution spleen ([2]; 1 min): 0.14 % Injected dose
biodistribution urine ([2]; 1 min): 0 % Injected dose
biodistribution kidney ([2]; 3 min): 8.71 % Injected dose
biodistribution liver ([2]; 3 min): 5.04 % Injected dose
biodistribution muscle ([2]; 3 min): 15.39 % Injected dose
biodistribution skin ([2]; 3 min): 19.66 % Injected dose
biodistribution spleen ([2]; 3 min): 0.16 % Injected dose
biodistribution urine ([2]; 3 min): 2.97 % Injected dose
biodistribution kidney ([2]; 5 min): 6.71 % Injected dose
biodistribution liver ([2]; 5 min): 4.34 % Injected dose
biodistribution muscle ([2]; 5 min): 11.74 % Injected dose
biodistribution skin ([2]; 5 min): 19.83 % Injected dose
biodistribution spleen ([2]; 5 min): 0.12 % Injected dose
biodistribution urine ([2]; 5 min): 6.52 % Injected dose
biodistribution kidney ([2]; 10 min): 5.97 % Injected dose
biodistribution liver ([2]; 10 min): 5.34 % Injected dose
biodistribution muscle ([2]; 10 min): 9.67 % Injected dose
biodistribution skin ([2]; 10 min): 23.93 % Injected dose
biodistribution spleen ([2]; 10 min): 0.11 % Injected dose
biodistribution urine ([2]; 10 min): 10.66 % Injected dose
biodistribution kidney ([2]; 30 min): 3.75 % Injected dose
biodistribution liver ([2]; 30 min): 2.86 % Injected dose
biodistribution muscle ([2]; 30 min): 23.84 % Injected dose
biodistribution skin ([2]; 30 min): 17.37 % Injected dose
biodistribution spleen ([2]; 30 min): 0.06 % Injected dose
biodistribution urine ([2]; 30 min): 5.91 % Injected dose
